How the values were obtained:
HCV replicon = assay: Anti-HCV replicon assay, EC50 (luciferase readout); assay type: cell-based; conditions: Huh-7 HCV replicon cells, 3 days incubation, luciferase luminescence
Protocol: (§1) The anti HCV activity of the quinazoline derivatives of this invention was tested in a human hepatoma Huh-7 cell line harbouring a HCV replicon. The assay comprised the following steps:
(§2) Step 1: compound preparation and serial dilution • 1. for water soluble quinazoline derivatives, a volume of 500 μL of solution in cell media (DMEM, 10% FBS, P/S, L-Glutamine) was prepared with a concentration being twice the concentration of the starting final serial dilution concentration. A volume of 150 μL of the solution was added to the pre-specified wells in column 1 of a 96-well cell culture plate (PerkinElmer, white plate, cat. #6005181, for EC50 assay; black plate, cat. #6005182 for CC50 assay). The rest of the plate, columns 2-12, was filled with 100 μL of cell media. The plate was then placed on a Precision 2000 Workstation to start the serial dilution. Compounds were diluted three times each step from column 1 to column 10. Column 11 was used as a blank control (no compound added). • 2. for quinazoline derivatives requiring DMSO to dissolve, serial dilution is performed in 50% DMSO in a 384-well plate. A solution containing a compound at 100-fold concentration of the starting final serial dilution concentration was prepared in 50% DMSO and added to the pre-specified wells in column 1 of a polypropylene 384-well plate. The plate was then placed on a Precision 2000 Workstation to start the serial dilution. After the serial dilution, a volume of 2 μL of the solution was transferred from the 384-well plate to a 96-well cell culture plate containing 100 μL of cell media on a Biomek FX Workstation. The DMSO concentration in the final assay condition was 0.5% after cells are added to the plate and the total volume in each well is brought to 200 μL.
(§3) Step 2: to each well of the serial dilution plate prepared above, 100 μL of cell media containing 6000 suspended Huh-7 HCV replicon cells was added with a Multidrop workstation. The plates were incubated for 3 days at 37° C. with 5% CO2.
(§4) Step 3: detection: • a) for the EC50 assay, the media in a 96-well cell culture plate was aspirated with a Biotek EL405 plate-washer. A volume of 200 μL of a solution containing a 1:1 mixture of cell-lysis buffer (Promega, Luciferase Cell Culture Lysis 5× Reagent, cat. #E1531) and luciferase substrate solution (Promega, Luciferase Assay, cat.# E4550) was added to each well of the plate with Multidrop. The plate was incubated for 30 minutes at room temperature before the luminescence signal was measured with a TopCount plate-reader. • b) for the CC50 assay, a volume of 100 μL of pre-mixed CellTiter-Glo (Promega, cat.# G7572) solution is added directly to the cell culture in each well of the plate and the luminescence signal is measured with a TopCount plate-reader after 10 minutes of incubation at room temperature.
(§5) Results in the table below are expressed by the following data: • the 50% cytostatic concentration (CC50), i.e. the concentration that results in 50% inhibition of cell growth, and • the 50% effective concentration (EC50), i.e. the concentration that […].

[1] = CC50 assay in the anti-HCV replicon assay (CellTiter-Glo); assay type: cell-based, human; conditions: human, Huh-7 hepatoma cells harbouring an HCV replicon; Huh-7 HCV replicon cells, 3 days incubation, CellTiter-Glo luminescence
Protocol: as §1, §2, §3, §4, §5

Molecule	EC50 (HCV replicon)	EC50 (HCV replicon; Hepatitis C virus, 72 h)	CC50 at 3 days [1]
4-(4-(2-methmethoxy)-quinazolin-6-yl)-N-methyl-benzamide [Example 246]	1000 to 10000 nM		
COc1ccc(-c2ccc3nc(N)nc(OC(C)C)c3c2)cc1OC [Example 18, 2-amino-6-(3,4-dimethoxyphenyl)-4-isopropoxy-quinazoline]		< 300 nM	< 10 µM
CCOc1nc(N)nc2ccc(-c3ccc(F)cc3)cc12 [Example 19, 2-amino-4-ethoxy-6-(4-fluorophenyl)-quinazoline]		1000 to 10000 nM	> 20 µM
COCCOc1nc(N)nc2ccc(-c3ccc(F)cc3)cc12 [Example 20, 2-amino-6-(4-fluorophenyl)-4-(2-methoxyethoxy)-quinazoline]		1000 to 10000 nM	10 to 20 µM
CC(C)Oc1nc(N)nc2ccc(-c3ccc(F)cc3)cc12 [Example 21, 2-amino-6-(4-fluorophenyl)-4-isopropoxy-quinazoline]		1000 to 10000 nM	> 20 µM
Nc1nc(OCC(F)(F)F)c2cc(-c3ccc(F)cc3)ccc2n1 [Example 26, 2-amino-6-(4-fluorophenyl)-4-(2,2,2-trifluoroethoxy)-quinazoline]		1000 to 10000 nM	10 to 20 µM
CC(=O)Nc1ccc(-c2ccc3nc(N)nc(OC(C)C)c3c2)cc1 [Example 27, 2-amino-6-(4-acetamidophenyl)-4-isopropoxy-quinazoline]		300 to 1000 nM	> 20 µM
COCCOc1nc(N)nc2ccc(-c3ccc(NC(C)=O)cc3)cc12 [Example 28, 2-amino-6-(4-acetamidophenyl)-4-(2-methoxyethoxy)-quinazoline]		300 to 1000 nM	10 to 20 µM
CC(=O)Nc1ccc(-c2ccc3nc(N)nc(OCCN4CCOCC4)c3c2)cc1 [Example 29, 2-amino-6-(4-acetamidophenyl)-4-[2-(4-morpholinyl)ethoxy]-quinazoline]		300 to 1000 nM	> 20 µM
CCOc1nc(N)nc2ccc(-c3ccc(NC(C)=O)cc3)cc12 [Example 30, 2-amino-6-(4-acetamidophenyl)-4-ethoxy-quinazoline]		300 to 1000 nM	> 20 µM
CC(=O)Nc1ccc(-c2ccc3nc(N)nc(OCC4CC4)c3c2)cc1 [Example 31, 2-amino-6-(4-acetamidophenyl)-4-(cyclopropyl-methoxy)-quinazoline]		300 to 1000 nM	> 20 µM
CC(=O)Nc1ccc(-c2ccc3nc(N)nc(OCC(F)(F)F)c3c2)cc1 [Example 32, 2-amino-6-(4-acetamidophenyl)-4-(2,2,2-trifluoroethoxy)-quinazoline]		300 to 1000 nM	> 20 µM
CCOc1ncnc2ccc(-c3ccc(F)cc3)cc12 [Example 34, 4-ethoxy-6-(4-fluorophenyl)-quinazoline]		300 to 1000 nM	> 20 µM
COCCOc1ncnc2ccc(-c3ccc(F)cc3)cc12 [Example 35, 4-(2-methoxyethoxy)-6-(4-fluorophenyl)-quinazoline]		1000 to 10000 nM	> 20 µM
CCOc1nc(N)nc2ccc(-c3cccc(F)c3F)cc12 [Example 38]		1000 to 10000 nM	10 to 20 µM
CCOc1nc(N)nc2ccc(-c3ccc(C)cc3)cc12 [Example 39, 4-Ethoxy-6-p-tolyl-quinazolin-2-ylamine]		1000 to 10000 nM	> 20 µM
CCOc1nc(N)nc2ccc(-c3ccoc3)cc12 [Example 40, 4-Ethoxy-6-furan-3-yl-quinazolin-2-ylamine]		1000 to 10000 nM	> 20 µM
CCOc1nc(N)nc2ccc(-c3ccn[nH]3)cc12 [Example 41, 4-Ethoxy-6-(2H-pyrazol-3-yl)-quinazolin-2-ylamine]		1000 to 10000 nM	> 20 µM
CCOc1nc(N)nc2ccc(-c3cccs3)cc12 [Example 42, 4-Ethoxy-6-thiophen-2-yl-quinazolin-2-ylamine]		1000 to 10000 nM	< 10 µM
CCOc1nc(N)nc2ccc(-c3ccc(C(=O)NC)cc3)cc12 [Example 43, 4-(2-Amino-4-ethoxy-quinazolin-6-yl)-N-methyl-benzamide]		< 300 nM	> 20 µM

Reference: patent US8673929B2, “4,6-di- and 2,4,6-trisubstituted quinazoline derivatives and pharmaceutical compositions useful for treating viral infections” (priority 2006, dated 2014)
